Measurements published in patent publication US5373089A, “Oxytocin antagonist” (Northwestern University, priority 1993, dated 1994).
Starred links: 1 amine or outer side, 2 acyl side, 3 side chain; linkers in the order of their positions; H or OH if unused. Positions of bridges follow the written chain, without caps; N, C: chain ends. Non-standard residues stand in square brackets, D forms with d. Residues, ends and D or L forms follow the SMILES beside them. X1 = O=C(CC1(S[*:2])CCCCC1)[*:1]

What was measured:
ADH = ADH bioassay (alteration in urine output due to ADH); assay type: in vivo; conditions: for ADH Bioassay pA2: in vivo
Protocol: The above compound was also tested for antagonism to vasopressin. Anti-ADH activity can be determined by measuring the alteration in urine output due to ADH in the presence and absence of the antagonist. A suitable ADH-assay is described in Sawyer, et al., Endocrinology, 63:694 (1958). […] The ratio of oxytocin antagonism to ADH antagonism was very high, viz. over 1, 866, as compared with 200 for the compositions disclosed in the parent applications.
The anti-ADH activity is measured by the alteration in urine […] in the presence and absence of the antagonist to determine the specificity of the antagonist. The anti-ADH assay is described in Sawyer, et al., Endocrinology, 63:694 (1958).

ESTROUS RAT UTERUS = assay: Oxytocic bioassay (isolated rat uterus, integrated contraction response to oxytocin); assay type: cell-based; conditions: for Oxytocic Bioassay pA2: virgin rat uterus in natural estrus, Munsick's buffer 0.5 mM Mg++, integrated contraction area
Text: The protocol used for the oxytocin bioassay procedure is derived from procedures described in a paper by Sawyer, et al., Endocrinology, 106:81 (1980), which in turn was based on reports of Munsick, Brit. J. Pharmacol., 3:328 (1960), and Holton, Brit. J. Pharmacol., 3:328 (1948). The assay calculations for the pA2 estimates are described by Schild, British J. Pharmacology, 2:189 (1947). The major difference in the present procedure from those reported by others in the field is that the area under the contraction is integrated where most other techniques calculate the amplitude. Integration provides much more consistent and reliable results although the pA2 estimates are approximately an order of magnitude lower than those reported using amplitude of the contraction as the endpoint.
1. Animals--a 1.5 cm piece of uterus from a virgin rat (Holtzman) in natural estrus is used for the assay.
2. Buffer/Assay Bath--The buffer used is Munsicks. […] The buffer is gassed continuously with 95% oxygen; 5% carbon dioxide giving a pH of 7.4. The temperature of the assay bath is 37° C. A 10 ml assay bath is used that contains a water jacket for maintaining the temperature and inlet and outlet spikets for adding and removing buffer.
3. Polygraph/transducer--The piece of uterine tissue used for the assay is anchored at one end and connected to a Statham Strain Gauge Force Transducer at the other end which in turn is attached to a Grass Polygraph Model 79 for monitoring the contractions.
4. Assay Protocol. (a) The tissue is equilibrated in the assay bath for one hour with washing with new buffer every fifteen minutes. One gram of tension is kept on the tissue at all times.
(b) The tissue is stimulated initially with oxytocin at 10 nM to "acclimate" the tissue and with […] KCl to determine the maximum contractile response.
(d) The tissue is exposed to oxytocin (Calbiochemical, San Diego, Calif.) for one minute and washed out. There is a three minute interval before addition of the next dose of the agonist or antagonist. When the antagonist is tested, it is given five minutes before the agonist. The agonist is given for one minute. All responses are integrated using a 7P10 Grass Integrator. This is the major difference between the present protocol and others in the literature which usually measure amplitude of the contractions as the response. A single concentration of oxytocin, equal to 80% of the maximum response, is used to test the antagonist. […] This is repeated three times for each dose of antagonist for a three point assay.
(e) Calculations for pA2 : The dose-response (DR) ratios are calculated for antagonist and a Schild's Plot is performed by plotting the Log (DR-1) vs. Log of antagonist concentration. The line plotted is calculated by least squares regression analysis. The pA2 is the concentration of antagonist at the point where the regression line crosses the 0 point of the Log (DR-1) ordinate. The pA2 is the negative Log of the concentration of antagonist that will reduce the response to the agonist by one-half.
The protocol used for the oxytocin bioassay procedure is derived from procedures described in a paper by Sawyer, et al., Endocrinology, 106:81 (1980), which in turn was based on reports of Munsick, Brit. J. Pharmacol., 3:328 (1960), and Holton, Brit. J. Pharmacol., 3:328 (1948). The assay calculations for the pA2 estimates are described by Schild, Brit. J. Pharmacol. (1947). The major difference in procedure from those previously reported was the integration of the area under the contraction instead of merely calculating the amplitude. Integration provides more consistent and reliable results, although the pA2 estimates are about an order of magnitude lower than those reported using amplitude of the contraction as the endpoint.
A 1.5 cm piece of uterus from a virgin rat (Holtzman) in natural estrus is used for the assay.
The buffer used is Munsick's. […]

Molecule | ADH Bioassay pA2 (ADH) | Oxytocic Bioassay pA2 (ESTROUS RAT UTERUS) | activity as a vasopressin antagonist (ADH; result in words) | OXYTOCIC BIOASSAY ED50 (ESTROUS RAT UTERUS; estrous rat uterus, Table 3) [nM] | BIOASSAY ED50 (ESTROUS RAT UTERUS; estrous rat uterus, Table 4) [nM] | BIOASSAY (ANTI/OTA) (ESTROUS RAT UTERUS; ratio to ANTAG I, rat oxytocic bioassay) | Oxytocic Bioassay pA2 (ESTROUS RAT UTERUS; D-Trp^2,Pen^6,Arg^8 ] oxytocin)
CC[C@H](C)[C@@H]1NC(=O)[C@H](Cc2ccccc2)NC(=O)[C@@H](Cc2c[nH]c3ccccc23)NC(=O)CC2(CCCCC2)SSC[C@@H](C(=O)N2CCC[C@H]2C(=O)N[C@@H](CCCNC(=N)N)C(=O)NCC(N)=O)NC(=O)[C@H](CC(N)=O)NC1=O [Compound B, [Pmp^1,D-Trp^2,Phe^3,Ile^4,Arg^8] oxytocin] ([dW]FINCPRG-NH2; linker N-5 via X1) | 7.40 | 7.51 | – | – | – | – | –
[(S)Pmp^1,D-Trp^2,Pen^6,Arg^8 ] oxytocin [Compound D] | < 5.75 | 8.86 | very low activity | 1.38 | 1.38 | 22.1 | greater than 8.86
